{"source": "patent US6989143B1", "about": "“Depletion method of blood plasma ascorbate” (priority 2000, dated 2006)", "key": {"[1]": {"tested_on": "pre-leukemia, or myelodysplastic syndromes(MDS)", "details": "in vitro; cited from earlier work"}, "leukemic cells": {"tested_on": "leukemic cells", "details": "in vitro, small number of patients; cited from earlier work"}, "[2]": {"assay": "Plasma ascorbate level in mice given sodium ascorbate or L-gulono-γ-lactone (HPLC-ECD)", "details": "5 mmole/kg, intraperitoneal", "experimental": "Time-dependent changes of plasma ascorbate level in mice given sodium ascorbate (-o-) and L-gulono-γ-lactone (-•-). Drugs were dissolved in distilled water and administered by intraperitoneal injections, both at 5 mmole/kg. Blood was taken from each animal time-sequentially for the assay of plasma ascorbate with HPLC-ECD, as described in MATERIALS AND METHODS. Zero time control animals were given 0.2 ml of normal saline. Data represent Mean±SD (n=3−5).\nSpecific pathogen-free female BALB/c mice (body weight, ca. 25 g) were used in the present study. Animals were obtained from Dae-Han Laboratory Animal Center (Daejeon, Korea) and cared for according to the ILAR guidelines in the animal care facility of Samsung Biomedical Research Center (Seoul, Korea). They were fed a diet from Jell Laboratory Chow (Seoul, Korea). Feed and water were offered ad libitum.\nThe animal was anesthetized with diethyl ether vapour and blood was obtained by choroidal venous plexus. About one ml of blood was collected into a microcentrifuge tube that contained 50 μl of 130 mM sodium citrate as an anticoagulant. […] The ascorbate content in the supernatant was measured directly by HPLC method. An aliquot of the sample was treated with 100 mM dithiothreitol at neutral pH to reduce dehydroascorbate to ascorbate, and then total ascorbate content was measured. […]"}}, "data": [{"molecule": "O=C1O[C@H]([C@@H](O)CO)C(O)=C1O", "note": "[LAA, L-ascorbic acid]", "values": [{"measurement": "share of MDS showing growth enhancement with LAA", "setting": "[1]", "value": 30, "unit": "%"}, {"measurement": "share of MDS showing growth suppression with LAA", "setting": "[1]", "value": 16, "unit": "%"}, {"measurement": "fraction of patients whose leukemic cell growth was modulated by LAA", "setting": "leukemic cells", "value": "approximately ½"}]}, {"molecule": "O=C1O[C@H]([C@@H](O)CO)C([O-])=C1O.[Na+]", "note": "[ascorbate, Sodium ascorbate]", "values": [{"measurement": "return of accumulated plasma ascorbate to normal levels", "setting": "[2]", "value": "rapidly diminished to normal levels within a few hours"}]}]}
